Reference: US12559480B2, “Methods of treatment using phenyl indole allosteric inhibitors of P97 ATPase” (University of Pittsburgh—Of the Commonwealth System of …, priority 2015, dated 2026)

Molecular target: p97 ATPase WT (Homo sapiens (Human), UniProt P55072)
Experiment: p97 ADP-Glo assay
Assay type: biochemical
Conditions: Table 3
Excerpt: ADP-Glo™ (Promega Corp.) is a bioluminescent, homogeneous assay that measures ADP formed from a biochemical reactions. Because of its high sensitivity, the assay is suitable for monitoring enzyme activities at very early substrate conversions requiring very low amount of enzymes.
The ADP-Glo assay can be conducted as described in Chou, T.-F.; Bulfer, S. L.; Weihl, C.

p97 ATPase WT, sequence (P55072 whole entry): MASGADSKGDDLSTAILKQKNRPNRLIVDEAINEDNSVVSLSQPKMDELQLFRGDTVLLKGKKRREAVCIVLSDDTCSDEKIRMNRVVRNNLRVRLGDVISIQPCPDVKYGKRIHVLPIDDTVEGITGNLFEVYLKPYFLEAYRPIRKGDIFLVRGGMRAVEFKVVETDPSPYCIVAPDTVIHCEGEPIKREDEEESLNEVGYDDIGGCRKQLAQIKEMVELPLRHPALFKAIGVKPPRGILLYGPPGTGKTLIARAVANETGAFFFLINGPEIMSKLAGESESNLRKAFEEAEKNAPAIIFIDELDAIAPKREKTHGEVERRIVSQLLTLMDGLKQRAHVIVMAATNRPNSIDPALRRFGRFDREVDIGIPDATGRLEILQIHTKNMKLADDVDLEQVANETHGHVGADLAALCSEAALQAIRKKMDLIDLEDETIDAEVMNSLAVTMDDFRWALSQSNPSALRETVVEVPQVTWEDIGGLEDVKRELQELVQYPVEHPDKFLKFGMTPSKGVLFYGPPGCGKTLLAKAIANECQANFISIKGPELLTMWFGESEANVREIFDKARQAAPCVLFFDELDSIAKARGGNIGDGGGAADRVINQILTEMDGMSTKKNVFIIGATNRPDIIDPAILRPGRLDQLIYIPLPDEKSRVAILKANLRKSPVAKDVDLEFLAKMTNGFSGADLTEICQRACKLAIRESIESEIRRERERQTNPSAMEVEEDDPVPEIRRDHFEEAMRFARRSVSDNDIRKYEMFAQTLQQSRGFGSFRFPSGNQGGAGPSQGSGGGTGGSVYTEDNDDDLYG

IC50: 6.2 µM
Structure (SMILES): CC(C)N1CCC(NC2CCN(c3cccc(-c4cc5cc(C#N)ccc5[nH]4)c3)CC2)CC1
